Experimental data: PubChem BioAssay (NCI)
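How tested: cells in 96-well plates exposed to compound for 48 hours at five concentrations. TGI marks complete inhibition of growth.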

Key:
Experiment in all cases: inhibition of tumour cell growth, NCI panel, 48 h
786-0 renal = test system: 786-0 renal
A498 renal = test system: A498 renal
A549 NSCLC = test system: A549 NSCLC
BT-549 breast = test system: BT-549 breast
CAKI-1 renal = test system: CAKI-1 renal
COLO 205 colon = test system: COLO 205 colon
DU-145 prostate = test system: DU-145 prostate
EKVX NSCLC = test system: EKVX NSCLC
HCC-2998 colon = test system: HCC-2998 colon
HCT-116 colon = test system: HCT-116 colon
HL-60(TB) leukemia = test system: HL-60(TB) leukemia
HOP-62 NSCLC = test system: HOP-62 NSCLC
HOP-92 NSCLC = test system: HOP-92 NSCLC
HS 578T breast = test system: HS 578T breast
HT29 colon = test system: HT29 colon
IGROV1 ovarian = test system: IGROV1 ovarian
K-562 leukemia = test system: K-562 leukemia
KM12 colon = test system: KM12 colon
LOX IMVI melanoma = test system: LOX IMVI melanoma
M14 melanoma = test system: M14 melanoma
MALME-3M melanoma = test system: MALME-3M melanoma
MCF7 breast = test system: MCF7 breast
MDA-MB-231 breast = test system: MDA-MB-231 breast
MDA-MB-435 = test system: MDA-MB-435
MDA-N = test system: MDA-N
MOLT-4 leukemia = test system: MOLT-4 leukemia
NCI-H226 lung = test system: NCI-H226 lung
NCI-H23 lung = test system: NCI-H23 lung
NCI-H522 lung = test system: NCI-H522 lung
NCI/ADR-RES ovarian = test system: NCI/ADR-RES ovarian
OVCAR-3 ovarian = test system: OVCAR-3 ovarian
OVCAR-5 ovarian = test system: OVCAR-5 ovarian
OVCAR-8 ovarian = test system: OVCAR-8 ovarian
PC-3 prostate = test system: PC-3 prostate
RPMI-8226 leukemia = test system: RPMI-8226 leukemia
RXF 393 renal = test system: RXF 393 renal
SF-268 CNS = test system: SF-268 CNS
SF-295 CNS = test system: SF-295 CNS
SK-MEL-2 melanoma = test system: SK-MEL-2 melanoma
SK-MEL-28 melanoma = test system: SK-MEL-28 melanoma
SK-MEL-5 melanoma = test system: SK-MEL-5 melanoma
SK-OV-3 ovarian = test system: SK-OV-3 ovarian
SN12C renal = test system: SN12C renal
SNB-75 CNS = test system: SNB-75 CNS
SW-620 colon = test system: SW-620 colon
T-47D breast = test system: T-47D breast
TK-10 renal = test system: TK-10 renal
U251 CNS = test system: U251 CNS
UACC-257 melanoma = test system: UACC-257 melanoma
UACC-62 melanoma = test system: UACC-62 melanoma
UO-31 renal = test system: UO-31 renal
ACHN renal = test system: ACHN renal
CCRF-CEM leukemia = test system: CCRF-CEM leukemia
HCT-15 colon = test system: HCT-15 colon
OVCAR-4 ovarian = test system: OVCAR-4 ovarian
SF-539 CNS = test system: SF-539 CNS
SNB-19 CNS = test system: SNB-19 CNS
NCI-H460 lung = test system: NCI-H460 lung

O=[N+]([O-])c1cccc(-c2ncnc(-c3cccc([N+](=O)[O-])c3)n2)c1
TGI (786-0 renal): > 100 µM
TGI (A498 renal): > 100 µM
TGI (A549 NSCLC): > 100 µM
TGI (BT-549 breast): > 100 µM
TGI (CAKI-1 renal): 93.3 µM
TGI (COLO 205 colon): > 100 µM
TGI (DU-145 prostate): > 100 µM
TGI (EKVX NSCLC): > 100 µM
TGI (HCC-2998 colon): > 100 µM
TGI (HCT-116 colon): > 100 µM
TGI (HL-60(TB) leukemia): > 100 µM
TGI (HOP-62 NSCLC): 37.5 µM
TGI (HOP-92 NSCLC): 57.2 µM
TGI (HS 578T breast): > 100 µM
TGI (HT29 colon): > 100 µM
TGI (IGROV1 ovarian): > 100 µM
TGI (K-562 leukemia): > 100 µM
TGI (KM12 colon): > 100 µM
TGI (LOX IMVI melanoma): > 100 µM
TGI (M14 melanoma): > 100 µM
TGI (MALME-3M melanoma): > 100 µM
TGI (MCF7 breast): > 100 µM
TGI (MDA-MB-231 breast): 98.2 µM
TGI (MDA-MB-435): > 100 µM
TGI (MDA-N): > 100 µM
TGI (MOLT-4 leukemia): > 100000 nM
TGI (NCI-H226 lung): > 100 µM
TGI (NCI-H23 lung): > 100 µM
TGI (NCI-H522 lung): > 100 µM
TGI (NCI/ADR-RES ovarian): > 100 µM
TGI (OVCAR-3 ovarian): > 100 µM
TGI (OVCAR-5 ovarian): > 100 µM
TGI (OVCAR-8 ovarian): > 100 µM
TGI (PC-3 prostate): > 100 µM
TGI (RPMI-8226 leukemia): > 100 µM
TGI (RXF 393 renal): 62.8 µM
TGI (SF-268 CNS): > 100 µM
TGI (SF-295 CNS): > 100 µM
TGI (SK-MEL-2 melanoma): > 100 µM
TGI (SK-MEL-28 melanoma): > 100 µM
TGI (SK-MEL-5 melanoma): > 100 µM
TGI (SK-OV-3 ovarian): > 100 µM
TGI (SN12C renal): > 100 µM
TGI (SNB-75 CNS): > 100 µM
TGI (SW-620 colon): > 100 µM
TGI (T-47D breast): > 100 µM
TGI (TK-10 renal): > 100 µM
TGI (U251 CNS): 59.6 µM
TGI (UACC-257 melanoma): > 100 µM
TGI (UACC-62 melanoma): 95.2 µM
TGI (UO-31 renal): > 100 µM

CC(C)(C)OC(=O)NCC(c1c[nH]c2ccc(Br)cc12)c1c[nH]c2ccc(Br)cc12
TGI (786-0 renal): 13.2 µM
TGI (A498 renal): 29.1 µM
TGI (A549 NSCLC): 17.2 µM
TGI (ACHN renal): 18.1 µM
TGI (BT-549 breast): 24.8 µM
TGI (CAKI-1 renal): 24.5 µM
TGI (CCRF-CEM leukemia): 71.1 µM
TGI (COLO 205 colon): 16.2 µM
TGI (DU-145 prostate): 27.7 µM
TGI (EKVX NSCLC): 15.2 µM
TGI (HCC-2998 colon): 18 µM
TGI (HCT-116 colon): 13.8 µM
TGI (HCT-15 colon): 20.8 µM
TGI (HL-60(TB) leukemia): 37.1 µM
TGI (HOP-62 NSCLC): 27.3 µM
TGI (HOP-92 NSCLC): 19.4 µM
TGI (HS 578T breast): 47.7 µM
TGI (HT29 colon): 12.2 µM
TGI (IGROV1 ovarian): 17.3 µM
TGI (K-562 leukemia): > 100 µM
TGI (KM12 colon): 19.4 µM
TGI (LOX IMVI melanoma): 22.7 µM
TGI (M14 melanoma): 12.6 µM
TGI (MALME-3M melanoma): 33.3 µM
TGI (MCF7 breast): 22 µM
TGI (MDA-MB-231 breast): 32.1 µM
TGI (MDA-MB-435): 28.7 µM
TGI (MDA-N): 21.2 µM
TGI (NCI-H226 lung): 36.7 µM
TGI (NCI-H23 lung): 14.5 µM
TGI (NCI-H522 lung): 25.2 µM
TGI (NCI/ADR-RES ovarian): 23.1 µM
TGI (OVCAR-3 ovarian): 17.2 µM
TGI (OVCAR-4 ovarian): 25.9 µM
TGI (OVCAR-5 ovarian): 20.2 µM
TGI (OVCAR-8 ovarian): 45.6 µM
TGI (PC-3 prostate): 11.8 µM
TGI (RPMI-8226 leukemia): > 100 µM
TGI (RXF 393 renal): 25.7 µM
TGI (SF-268 CNS): 25.6 µM
TGI (SF-295 CNS): 21.9 µM
TGI (SF-539 CNS): 27.8 µM
TGI (SK-MEL-2 melanoma): 22.3 µM
TGI (SK-MEL-28 melanoma): 34.9 µM
TGI (SK-MEL-5 melanoma): 19 µM
TGI (SN12C renal): 18.1 µM
TGI (SNB-19 CNS): 23.3 µM
TGI (SW-620 colon): 24.9 µM
TGI (T-47D breast): 32.9 µM
TGI (TK-10 renal): 25.2 µM
TGI (U251 CNS): 19.1 µM
TGI (UACC-257 melanoma): 25.6 µM
TGI (UACC-62 melanoma): 23.1 µM
TGI (UO-31 renal): 19.6 µM

CN(CCNC(=O)c1nn(-c2ccccc2)c2c1ccc1ccccc12)CCNC(=O)c1nn(-c2ccccc2)c2c1ccc1ccccc12
TGI (786-0 renal): 3.04 µM
TGI (A498 renal): 5.29 µM
TGI (A549 NSCLC): 10.6 µM
TGI (ACHN renal): 5.51 µM
TGI (BT-549 breast): 21.8 µM
TGI (CAKI-1 renal): 15.6 µM
TGI (CCRF-CEM leukemia): 9.92 µM
TGI (COLO 205 colon): 2.99 µM
TGI (DU-145 prostate): 70.2 µM
TGI (EKVX NSCLC): 4.41 µM
TGI (HCC-2998 colon): 2.92 µM
TGI (HCT-116 colon): 2.87 µM
TGI (HCT-15 colon): 3.39 µM
TGI (HL-60(TB) leukemia): 3.94 µM
TGI (HOP-62 NSCLC): 3.38 µM
TGI (HOP-92 NSCLC): 3.79 µM
TGI (HS 578T breast): 4.22 µM
TGI (HT29 colon): 15.8 µM
TGI (IGROV1 ovarian): 5.27 µM
TGI (KM12 colon): 6.22 µM
TGI (LOX IMVI melanoma): 3.18 µM
TGI (M14 melanoma): 3.85 µM
TGI (MALME-3M melanoma): 3.84 µM
TGI (MCF7 breast): 3.91 µM
TGI (MDA-MB-231 breast): 2.74 µM
TGI (MDA-MB-435): 4 µM
TGI (MDA-N): 3.19 µM
TGI (MOLT-4 leukemia): 1720 nM
TGI (NCI-H226 lung): 7.7 µM
TGI (NCI-H23 lung): 6.78 µM
TGI (NCI-H460 lung): 2990 nM
TGI (NCI-H522 lung): 3.6 µM
TGI (NCI/ADR-RES ovarian): 9.15 µM
TGI (OVCAR-3 ovarian): 4.16 µM
TGI (OVCAR-4 ovarian): 22.1 µM
TGI (OVCAR-5 ovarian): 40.5 µM
TGI (OVCAR-8 ovarian): 3.29 µM
TGI (PC-3 prostate): 7.08 µM
TGI (RPMI-8226 leukemia): 1.8 µM
TGI (RXF 393 renal): 3.34 µM
TGI (SF-268 CNS): 4.6 µM
TGI (SF-295 CNS): 3.21 µM
TGI (SF-539 CNS): 3.07 µM
TGI (SK-MEL-2 melanoma): 3.5 µM
TGI (SK-MEL-28 melanoma): 3.23 µM
TGI (SK-MEL-5 melanoma): 3.1 µM
TGI (SK-OV-3 ovarian): 7.28 µM
TGI (SN12C renal): 3.46 µM
TGI (SNB-19 CNS): 8.11 µM
TGI (SNB-75 CNS): 5.55 µM
TGI (SW-620 colon): 4.46 µM
TGI (T-47D breast): 6.95 µM
TGI (TK-10 renal): 3.37 µM
TGI (U251 CNS): 3.05 µM
TGI (UACC-257 melanoma): 3.22 µM
TGI (UACC-62 melanoma): 3.37 µM
TGI (UO-31 renal): 3.78 µM
